This experiment concerns the target T1, Aromatase (Homo sapiens, UniProt P11511).
T1 sequence (P11511 whole entry): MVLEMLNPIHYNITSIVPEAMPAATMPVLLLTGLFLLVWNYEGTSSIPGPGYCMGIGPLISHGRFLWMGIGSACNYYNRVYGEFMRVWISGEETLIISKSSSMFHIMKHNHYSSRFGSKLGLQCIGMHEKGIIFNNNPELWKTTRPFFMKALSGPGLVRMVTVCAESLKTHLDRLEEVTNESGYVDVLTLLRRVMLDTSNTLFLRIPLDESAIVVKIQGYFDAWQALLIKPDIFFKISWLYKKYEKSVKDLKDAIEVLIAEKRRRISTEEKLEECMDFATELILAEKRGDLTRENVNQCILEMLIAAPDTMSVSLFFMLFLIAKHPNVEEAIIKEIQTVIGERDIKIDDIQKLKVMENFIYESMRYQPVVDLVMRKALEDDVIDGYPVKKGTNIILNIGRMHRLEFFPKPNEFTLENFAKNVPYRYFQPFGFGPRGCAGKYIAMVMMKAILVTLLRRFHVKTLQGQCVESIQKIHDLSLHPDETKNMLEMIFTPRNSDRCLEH
In words: Inhibition of aromatase in human JEG-3 cells using [1beta-3H]androstenedione after 1 hr by scintillation spectrometry. Format: cell-based.

Usually IC50 stands for the concentration that inhibits the measured activity by half. A lower IC50 goes with higher potency.

Molecule `N#Cc1ccc(N(Cc2ccc(OS(N)(=O)=O)cc2)n2cnnc2)cc1-c1ccccc1` gave an IC50 of 0.21 nM.

These data come from ChEMBL document CHEMBL1671847, “Hybrid dual aromatase-steroid sulfatase inhibitors with exquisite picomolar inhibitory activity” (ACS Med Chem Lett, 2011).
